{
  "source": "patent US20130052214A1",
  "about": "“IDENTIFICATION OF A PEPTIDE(S) THAT INDUCES AUTOIMMUNE ANTERIOR UVEITIS” (BOARD OF TRUSTEES OF THE UNIVERSITY OF ARKANSAS, priority 2011, published 2013)",
  "tested_on": "Lewis rats",
  "assay": "Induction of experimental autoimmune anterior uveitis (EAAU) by hind footpad immunization with MAA-derived peptides in CFA",
  "type": "in vivo, rat",
  "conditions": "for severity of EAAU, clinical and histopathologic examination: 250 μg peptide in CFA compared with 75 μg bovine MAA in CFA, histology at day 17 and day 20 post-immunization; for induction of EAAU: single-dose hind footpad immunization, emulsified 1:1 in CFA, 250 μg peptide or 75 μg bovine MAA, examined daily day 7 to 30 post-immunization",
  "procedure": "Peptides having the sequence of SEQ ID NO. 1 and SEQ ID NO. 2 were solubilized in sterile phosphate buffered saline (PBS) before use. Lewis rats were immunized separately with 100 μl of stable emulsion containing 250 μg of peptide SEQ ID NO. 1 (n=9 rats) or peptide SEQ ID NO. 2 (n=9 rats) emulsified (1:1) in complete Freund's adjuvant (CFA) using a single-dose induction protocol in the hind footpad to induce EAAU. Control animals (n=9 rats) received 75 μg of bovine melanin associated antigen (MAA) emulsified (1:1) in CFA. Animals in each group were examined daily between day 7 and 30, post-immunization, to determine the time of onset and progression of clinical disease in EAAU. Two animals from each group were sacrificed at day 17 and day 20 post-immunization and eyes were harvested for histological analysis to determine the severity of disease and degree of inflammation. Lewis rats injected with MAA peptide SEQ ID NO. 1 or MAA peptide SEQ ID NO. […] 1 (FIGS. 1A and 1D) and peptide SEQ ID NO. […] As shown in all of the Figs., the iris (I) and the ciliary body (CB) were infiltrated with inflammatory cells.",
  "data": [
    {"sequence": "GEPGNIGFPGPKGPSGDPGKAGEKG (listed as Bos taurus) [SEQ ID NO. 1, truncated peptide derived from Melanin Associated Antigen (MAA)]", "values": [
      {"measurement": "severity of EAAU, clinical and histopathologic examination", "value": "less severe than that induced by bovine MAA"},
      {"measurement": "induction of EAAU", "value": "developed EAAU"}
    ]},
    {"sequence": "HAGLAGARGAPGPDGNNGAQGPPGL (listed as Bos taurus) [SEQ ID NO. 2, truncated peptide derived from Melanin Associated Antigen (MAA)]", "values": [
      {"measurement": "severity of EAAU, clinical and histopathologic examination", "value": "less severe than that induced by bovine MAA"},
      {"measurement": "induction of EAAU", "value": "developed EAAU"}
    ]}
  ]
}
